Measurements taken from patent US20240407993A1, “PEPTIDE HAVING ANTI-AGING ACTIVITY, AND USE THEREOF” (CAREGEN CO., LTD., priority 2021, published 2024).

Tests used:
Type in all cases: cell-based, mouse
[1] = test system: Elastin; assay: Elastin gene expression by RT-PCR in fibroblasts; conditions: NIH3T3 cells, peptide 1, 10, 50 μM, 24 hours; FIGS. 1A, 1D
Protocol: (§1) First, NIH3T3 cells (mouse fibroblast cell line) were seeded in a 6-well plate at a cell density of 3×10^5 cell/well, and then the cells were cultured in DMEM medium containing 10% fetal bovine serum (FBS) for 24 hours. The cultured cells were washed once with serum free DMEM medium, and the peptide of the present invention was mixed in 1 mL of the serum free DMEM medium at each of concentrations of 1, 10, and 50 μM, and dispensed into the cells. A positive control (PC) was treated with 5 ng/ml of TGF-β1 instead of the above peptide. The cells were cultured in a CO2 incubator at 37° C. for 24 hours.
(§2) The cultured cells were washed twice with PBS, and RNA was extracted from the cells using easy blue (iNtRON, Cat. No.: 17061, Korea). The amount of RNA extracted was quantified, 1,000 ng of RNA was added per tube, and RT reaction was performed using a kit (enzynomics, Cat. No.: PT200, Korea). RT-PCR was performed using a PCR kit (enzynomics, Cat. No.: […], Korea). The sequences of the primers of collagen, fibronectin, and elastin used in RT-PCR and the sequence of the primer of GAPDH used to compare the total RNA amount of each treatment group are shown in [Table 2].

[2] = test system: Fibronectin; assay: Fibronectin gene expression by RT-PCR in fibroblasts; conditions: NIH3T3 cells, peptide 1, 10, 50 μM, 24 hours; FIGS. 1A, 1C
Protocol: as §1, §2

[3] = test system: MMP-1; assay: MMP-1 protein expression increased by UV irradiation, western blot in fibroblasts; conditions: NIH3T3 cells, 6 J/cm^2 UVA, peptide 1, 10, 50 μM, 24 hours after irradiation; FIG. 6A
Protocol: The expression of MMP-1 encoding proteins related to collagen degradation increases by ultraviolet irradiation. Therefore, it was confirmed whether the expression of the MMP-1 protein was inhibited again and the cell aging phenomenon was inhibited when treated with the peptide of the present invention.
as §1, with “and HaCaT cells” for “(mouse fibroblast cell line)”, “5×10^5” for “3×10^5”, “cell/well, respectively,” for “cell/well,”, “2.5 mM” for “5 ng/ml”, “N-Acetylcysteine (NaC)” for “TGF-β1”, “peptide.” for “peptide. The cells were cultured in a CO2 incubator at 37° C. for 24 hours.”
The cells were cultured in a CO2 incubator at 37° C. for 1 hour. The medium of the cultured cells was transferred to a tube (e-tube), 1 ml of PBS was added, and then the NIH3T3 cells were irradiated with 6 J/cm^2 of UVA and the HaCaT cells were irradiated with 15 mJ/cm^2 of UVB using a UV irradiator (VILBER LOURMAT, Cat No.: 3102-BSU, France). After removing PBS, 900 μL of the medium transferred to the tube was added, and culture was performed in a CO2 incubator at 37° C. for 24 hours. […]

## LCACCLHNCNECQ
[1]
  expression of the elastin gene: gradually increased as a concentration of the peptide increased
[2]
  expression of the fibronectin gene: gradually increased as a concentration of the peptide increased
[3]
  expression of MMP-1 increased by UV irradiation: inhibited
